Measurements reported in patent US20030044776A1, “COMPOSITIONS AND METHODS FOR IDENTIFYING AGENTS THAT ALTER MITOCHONDRIAL PERMEABILITY TRANSITION PORES” (priority 1998, published 2003).
One block for each compound: values may come before it.

Legend:
Type in all cases: cell-based, human
[1] = test system: SH-SY5Y cybrid cells (control and AD); assay: Mitochondrial permeability transition (MPT) assay using DASPMI fluorescence loss rate after ionomycin induction
Description: The fluorescent mitochondria-selective dye 2-,4-dimethylaminostyryl-N-methylpyridinium (DASPMI, Molecular Probes, Inc., Eugene, Oreg.) is dissolved in Hank's balanced salt solution (HBSS; Life Technologies, Rockville, Md.) at 1 mM and diluted to 25 μM in warm HBSS. […]
Fluorescence of each microculture in the 96-well plate is quantified immediately using a Molecular Devices fmax fluorimetric plate reader (Molecular Devices Corp., Sunnyvale, Calif.; excitation wavelength=485 nm; emission wavelength=590 nm) and zero-time (t0) fluorescence is recorded. […] Fluorescence decay of DASPMI-loaded, ionomycin induced cells is monitored as a function of time from 0-500 seconds following addition of ionomycin. The maximum negative slope (V-max) is calculated from a subset of the data using analysis software provided by the fluorimetric plate reader manufacturer. In addition, the initial and final signal intensities are determined and the effects of candidate agents that may affect MPT on the rate of signal decay are quantified.
The method described in Example 1 was employed to monitor MPT induced by the calcium ionophore ionomycin and inhibition thereof by cyclosporin. […] Fluorescence detection and monitoring of fluorescence decay as a rate loss function were as described in Example 1. […]

[2] = test system: caspase-3 activity in AD cybrids or MixCon cybrids; assay: Caspase-3 activation (DEVD-AMC cleavage) following ionomycin induced MPT; details: FIG. 11
Description: In 96-well microculture plates, cultured human cybrid neuroblastoma SH-SY5Y cells constructed using mitochondria from an individual known to have AD, or from a normal control subject, were cultured in HBSS followed by the addition of atractyloside (as described in Example 5) or ionomycin (as described in Example 1). Control cultures, to which neither atractyloside nor ionomycin were added, were prepared in parallel. Membrane potential was monitored from about 15 minutes (which was, in most cases, sufficient for purposes of the assay) to about 45 to 60 minutes, wherein “about” indicates ±10%.
Caspase-3 activity was assessed by diluting the fluorogenic peptide substrate acetyl-Asp-Glu-Val-Asp (SEQ ID NO:2) conjugated to AMC (7-amino-4-methylcoumarin; the synthetic peptide is referred to as DEVD-AMC; CalBiochem-Novabiochem Corp., San Diego, Calif.; see Walker et al., 1994 Cell 78:343, and Thornberry et al., 1992 Nature 356:768) from a DMSO stock solution into culture media to a final concentration of 20 μM for uptake by cells. Substrate cleavage liberating the AMC fluorophore was measured continuously using a Cytofluor fluorimetric plate reader (model #2350, Millipore Corp., Bedford, Mass.; excitation wavelength=435 nm; emission wavelength=460 nm). Data are presented as ΔRFU (relative fluorescence units). […]

[3] = test system: SH-SY5Y neuroblastoma cells; assay: Apoptosis morphology (membrane blebbing) by light microscopy after ionomycin induced MPT; details: four hours
Description: Control SH-SY5Y cells, and control (normal) and AD cybrids produced from SH-SY5Y cells were as described above, and were induced to undergo MPT as described in Example 1. Some cultured cells were pretreated with 1-phenylbiguanide (I) as described in Example 8. Briefly, SH-SY5Y neuroblastoma cells (1×10^5 cells) were rinsed with one volume 1×PBS, and then treated with 10 μM ionomycin (Calbiochem, San Diego, Calif.) in DMEM supplemented with 10% fetal calf serum (FCS) (Gibco, Life Technologies, Grand Island, N.Y.) for 10 minutes, followed by two washes with DMEM (10% FCS). […]
The results using parental SH-SY5Y cells are illustrated in FIG. 10.

SMILES: N.N.N.N.N.N.N.N.N.N.N.N.N.N.[Cl-].[Cl-].[Cl-].[Cl-].[Cl-].[Cl-].[O-2].[O-2].[Ru+3].[Ru+3].[Ru+4] [ruthenium red]
- DASPMI fluorescence loss rate ([1]; 10 nM ruthenium red for 10 minutes prior to MPT induction with ionomycin (5 μM), control and AD cybrid cell lines, FIG. 3): significantly greater in cybrid cells that have not been treated with ruthenium red

SMILES: C[C@H](CCC(=O)O)C[C@H](C)C[C@H](C)C(=O)/C=C(\O)[C@H](C)C[C@H](C)C/C=C/[C@@H](C)[C@@H](O)[C@@H](C)[C@@H](O)C[C@@H]1CC[C@@](C)([C@H]2CC[C@@](C)([C@@H](C)O)O2)O1 [ionomycin]
- caspase-3 activity induced by MPT induction ([2]; 25 μM ionomycin): induces significant caspase-3 activity
- cells exhibiting membrane blebbing ([3]; parental SH-SY5Y cells, 10 μM ionomycin, untreated cells <5%, FIG. 10B): approximately 80%

- induction of caspase-3 activity after ionomycin induced MPT ([2]; pretreated with (I) as in Example 8 (2 mM, 20 min), MPT induced by 25 μM ionomycin): inhibited
SMILES: N=C(N)NC(=N)Nc1ccccc1 [1-phenylbiguanide]
- rate of loss of mitochondrial membrane potential (DASPMI loss rate) ([1]; 2 mM 1-phenylbiguanide for 20 min prior to MPT induction with 1 μM ionomycin, two AD and one control cybrid cell lines, p<0.001, FIG. 9): decreased the rate of loss of mitochondrial membrane potential
- apoptosis morphology, % of cells ([3]; parental SH-SY5Y cells pretreated with (I), then 10 μM ionomycin, FIG. 10C): 10-15%
